From US4910012A, “Products containing Tc-99-m-ωalkylphosphinico-1-hydroxyalkane-1,1-diphosphonates for bone scintigraphy and a process for the preparation of these products” (Hoechst Aktiengesellschaft, priority 1988, dated 1990)

Columns and labels:
osteosarcoma = assay: Scintigraphy in osteosarcoma model, ratio (Q) of count density in the tumor to that in the contralateral tibia; type: in vivo, Sprague-Dawley rats; settings: 0.01 mg i.v., 9.25 MBq Tc-99m, 4 weeks after tumor implantation
Protocol: Tc-99m-HMPD was tested on the model of osteosarcoma in Sprague-Dawley rats. […] The investigation was carried out 4 weeks after tumor implantation on a total of 30 animals. 1. Investigation schedule:
Day 1 Tc-99m-MDP (reference substance)
Scintigraphy 1, 90 and 180 minutes after injection
Storage of the scintigraphic data for the evaluation 2. Evaluation
Measurement of whole-body activity from the scintigraphic data
Ratio (Q) of the count density per unit area in the tumor to that in the contralateral tibia
Comparison of the quotient QHMPD with that for the products QMDP and QDBA-MDP.

[1] = Organ distribution of Tc-99m-HMPD in the rat 2 h after injection as a function of the amount administered (Table 3); type: in vivo; settings: for Bladder + urine / Blood / Bone / Kidneys / Liver / Lung / Muscle / Stomach / Thyroid: i.v., 2 h
Protocol: The product prepared as in Example 2 (pH=7) was used for the following experiment.
Organ distribution of Tc-99m-HMPD in the rat
(n = 3) 2 h after injection as a function of
the amount administered (mg) and as a % of the
injected dose per organ or tissue. The various
HMPD amounts were administered i.v. in 0.1 ml

[2] = Stability of Tc-99m-HMPD by gel chromatography on polyacrylamide gel (Bio Gel P-10), up to 24 h after preparation; type: physicochemical; settings: for % Activity in the HMPD: eluent 0.9% NaCl
Protocol: The labeling yield of Tc-99m-HMPD was determined, and the purity and stability were tested, by thin-layer chromatographic methods, gel filtration and HPLC.
2. The stability for a period of up to 24 h after preparation was tested by gel chromatography on polyacrylamide gel (Bio Gel® P-10, manufactured by Bio-Rad, California, USA) using 0.9% NaC1 solution as eluent (FIG. 1). The proportion of the activity in the HMPD, that in the form of pertechnetate and that remaining on the column were measured (Table 1). The latter is greater than the proportion of ^99m -Tc^4+ because non-specific adsorption of technetium to the support material is always observed.

bone lesions = settings: compared with DPD and MDP; cited from earlier work
lesion / normal bone = assay: Ratio Q of Tc-99m uptake in a lesion to uptake in normal bone (own investigations); type: in vivo; settings: compared with A-EDP, DMA-MDP, EA-MDP, DEA-MDP; Q=(% Tc/g of lesion)/(% Tc/g of normal bone)
Text: Many investigations carried out to date have been devoted to the search for compounds having a more favorable uptake ratio between the lesion and normal skeleton.

[3] = in words, cited from earlier work

O=P(O)(O)CP(=O)(O)O [MDP, methanediphosphonic acid]
Lesion quotient (Q) (osteosarcoma): 1.0

1-hydroxy-3-methylphosphinico-1,1-propanediphosphonic acid [Tc-99m-HMPD]
Bladder + urine ([1]; 0.001 mg): 54.1 % of the injected dose per org | Blood ([1]; 0.001 mg): 0.7 % of the injected dose per org | Bone ([1]; 0.001 mg): 32.9 % of the injected dose per org | Kidneys ([1]; 0.001 mg): 1.51 % of the injected dose per org | Liver ([1]; 0.001 mg): 0.27 % of the injected dose per org | Lung ([1]; 0.001 mg): 0.080 % of the injected dose per org | Muscle ([1]; 0.001 mg): 0.8 % of the injected dose per org | Stomach ([1]; 0.001 mg): 0.151 % of the injected dose per org | Thyroid ([1]; 0.001 mg): 0.008 % of the injected dose per org | Bladder + urine ([1]; 0.01 mg): 55.6 % of the injected dose per org | Blood ([1]; 0.01 mg): 0.4 % of the injected dose per org | Bone ([1]; 0.01 mg): 34.7 % of the injected dose per org | Kidneys ([1]; 0.01 mg): 1.05 % of the injected dose per org | Liver ([1]; 0.01 mg): 0.18 % of the injected dose per org | Lung ([1]; 0.01 mg): 0.048 % of the injected dose per org | Muscle ([1]; 0.01 mg): 0.6 % of the injected dose per org | Stomach ([1]; 0.01 mg): 0.091 % of the injected dose per org | Thyroid ([1]; 0.01 mg): 0.008 % of the injected dose per org | Bladder + urine ([1]; 0.1 mg): 56.9 % of the injected dose per org | Blood ([1]; 0.1 mg): 0.4 % of the injected dose per org | Bone ([1]; 0.1 mg): 32.6 % of the injected dose per org | Kidneys ([1]; 0.1 mg): 0.94 % of the injected dose per org | Liver ([1]; 0.1 mg): 0.17 % of the injected dose per org | Lung ([1]; 0.1 mg): 0.480 % of the injected dose per org | Muscle ([1]; 0.1 mg): 0.6 % of the injected dose per org | Stomach ([1]; 0.1 mg): 0.092 % of the injected dose per org | Thyroid ([1]; 0.1 mg): 0.011 % of the injected dose per org | Bladder + urine ([1]; 1 mg): 59.1 % of the injected dose per org | Blood ([1]; 1 mg): 0.8 % of the injected dose per org | Bone ([1]; 1 mg): 28.7 % of the injected dose per org | Kidneys ([1]; 1 mg): 1.03 % of the injected dose per org | Liver ([1]; 1 mg): 0.22 % of the injected dose per org | Lung ([1]; 1 mg): 0.079 % of the injected dose per org | Muscle ([1]; 1 mg): 1.1 % of the injected dose per org | Stomach ([1]; 1 mg): 0.090 % of the injected dose per org | Thyroid ([1]; 1 mg): 0.007 % of the injected dose per org | liver uptake with larger administered amounts ([1]; in words): no increase in liver uptake at the expense of skeletal accumulation | Lesion quotient (Q) (osteosarcoma): 1.27 | % Tc-99m Residue on the column ([2]; 5 min after preparation): 6.8% | % Tc-99m as pertechnetate ([2]; 5 min after preparation): 0.6% | % Activity in the HMPD ([2]; 5 min after preparation): 92.6% | % Tc-99m Residue on the column ([2]; 2 h after preparation): 7.5% | % Tc-99m as pertechnetate ([2]; 2 h after preparation): 0.4% | % Activity in the HMPD ([2]; 2 h after preparation): 92.1% | % Tc-99m Residue on the column ([2]; 7 h after preparation): 4.6% | % Tc-99m as pertechnetate ([2]; 7 h after preparation): 0.4% | % Activity in the HMPD ([2]; 7 h after preparation): 95.0% | % Tc-99m Residue on the column ([2]; 24 h after preparation): 5.2% | % Tc-99m as pertechnetate ([2]; 24 h after preparation): 0.8% | % Activity in the HMPD ([2]; 24 h after preparation): 94.0% | product stability ([2]; summary in words): stable for a whole working day | proportion of Tc-99m activity present in the HMPD ([2]; up to 24 h after preparation): more than 90%

CCCCN(CCCC)C(P(=O)(O)O)P(=O)(O)O [DBA-MDP, N,N-dibutylaminomethanediphosphonic acid]
accumulation in the lesions (bone lesions): distinctly higher | ratio Q for uptake of Tc-99m in a lesion vs normal bone (lesion / normal bone): by far the highest ratios Q | blood clearance ([3]; current state of knowledge): not optimal | bone/background ratio [3]: relatively poor | Lesion quotient (Q) (osteosarcoma): 1.16
